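Where inhibition never reached the appropriate level, the endpoint shown equals the highest concentration tested. Otherwise, values were interpolated linearly from a five-concentration, 48-hour dose response in 96-well plates. TGI marks complete inhibition of growth.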
Columns and labels:
Experiment in all cases: NCI tumour cell line growth inhibition, 48 h
M14 melanoma = tested on: M14 melanoma
HCT-116 colon = tested on: HCT-116 colon
RPMI-8226 leukemia = tested on: RPMI-8226 leukemia
SK-MEL-5 melanoma = tested on: SK-MEL-5 melanoma
U251 CNS = tested on: U251 CNS
MDA-N = tested on: MDA-N
HOP-62 NSCLC = tested on: HOP-62 NSCLC
OVCAR-8 ovarian = tested on: OVCAR-8 ovarian
NCI-H522 lung = tested on: NCI-H522 lung
SF-295 CNS = tested on: SF-295 CNS
IGROV1 ovarian = tested on: IGROV1 ovarian
SK-OV-3 ovarian = tested on: SK-OV-3 ovarian
OVCAR-4 ovarian = tested on: OVCAR-4 ovarian
MALME-3M melanoma = tested on: MALME-3M melanoma
UO-31 renal = tested on: UO-31 renal
MOLT-4 leukemia = tested on: MOLT-4 leukemia
TK-10 renal = tested on: TK-10 renal
LOX IMVI melanoma = tested on: LOX IMVI melanoma
OVCAR-5 ovarian = tested on: OVCAR-5 ovarian
ACHN renal = tested on: ACHN renal
A549 NSCLC = tested on: A549 NSCLC
HT29 colon = tested on: HT29 colon
SK-MEL-2 melanoma = tested on: SK-MEL-2 melanoma
CCRF-CEM leukemia = tested on: CCRF-CEM leukemia
COLO 205 colon = tested on: COLO 205 colon
UACC-257 melanoma = tested on: UACC-257 melanoma
EKVX NSCLC = tested on: EKVX NSCLC
K-562 leukemia = tested on: K-562 leukemia
HOP-92 NSCLC = tested on: HOP-92 NSCLC
BT-549 breast = tested on: BT-549 breast
NCI/ADR-RES ovarian = tested on: NCI/ADR-RES ovarian
NCI-H460 lung = tested on: NCI-H460 lung
T-47D breast = tested on: T-47D breast
MCF7 breast = tested on: MCF7 breast
UACC-62 melanoma = tested on: UACC-62 melanoma
786-0 renal = tested on: 786-0 renal
KM12 colon = tested on: KM12 colon
CAKI-1 renal = tested on: CAKI-1 renal
PC-3 prostate = tested on: PC-3 prostate
NCI-H226 lung = tested on: NCI-H226 lung
HCT-15 colon = tested on: HCT-15 colon
SNB-19 CNS = tested on: SNB-19 CNS
NCI-H23 lung = tested on: NCI-H23 lung
DU-145 prostate = tested on: DU-145 prostate
SN12C renal = tested on: SN12C renal
SF-268 CNS = tested on: SF-268 CNS
SR leukemia = tested on: SR leukemia
SK-MEL-28 melanoma = tested on: SK-MEL-28 melanoma
SW-620 colon = tested on: SW-620 colon
HCC-2998 colon = tested on: HCC-2998 colon
HS 578T breast = tested on: HS 578T breast
SF-539 CNS = tested on: SF-539 CNS
RXF 393 renal = tested on: RXF 393 renal
OVCAR-3 ovarian = tested on: OVCAR-3 ovarian
MDA-MB-231 breast = tested on: MDA-MB-231 breast
MDA-MB-435 = tested on: MDA-MB-435
SNB-75 CNS = tested on: SNB-75 CNS
HL-60(TB) leukemia = tested on: HL-60(TB) leukemia
A498 renal = tested on: A498 renal

In the case of `Cc1noc(C)c1-n1nc2ccc3nonc3c2n1`, the TGI (M14 melanoma) is reported as > 100 µM, the TGI (HCT-116 colon) is reported as > 100 µM and the TGI (RPMI-8226 leukemia) is reported as > 100 µM. The TGI (SK-MEL-5 melanoma) was > 100 µM, the TGI (U251 CNS) was > 75.4 µM and the TGI (MDA-N) was > 100 µM. For the same compound, the TGI (HOP-62 NSCLC) was 59.7 µM, the TGI (OVCAR-8 ovarian) was > 100 µM and the TGI (NCI-H522 lung) was > 100 µM. The TGI (SF-295 CNS) was 98.6 µM, the TGI (IGROV1 ovarian) was > 100 µM and the TGI (SK-OV-3 ovarian) was > 73.4 µM. For the same compound, the TGI (OVCAR-4 ovarian) was > 100 µM, the TGI (MALME-3M melanoma) was > 100 µM and the TGI (UO-31 renal) was > 100 µM. For the same compound, the TGI (MOLT-4 leukemia) was > 100 µM, the TGI (TK-10 renal) was > 82 µM and the TGI (LOX IMVI melanoma) was > 100 µM. The TGI (OVCAR-5 ovarian) was > 100 µM, the TGI (ACHN renal) was > 100 µM and the TGI (A549 NSCLC) was > 100 µM. For the same compound, the TGI (HT29 colon) was > 100 µM, the TGI (SK-MEL-2 melanoma) was > 100 µM and the TGI (CCRF-CEM leukemia) was > 100 µM. For the same compound, the TGI (COLO 205 colon) was > 100 µM, the TGI (UACC-257 melanoma) was > 100 µM and the TGI (EKVX NSCLC) was > 92.4 µM. For the same compound, the TGI (K-562 leukemia) was > 100 µM, the TGI (HOP-92 NSCLC) was > 86.4 µM and the TGI (BT-549 breast) was > 100 µM. The TGI (NCI/ADR-RES ovarian) was > 100 µM, the TGI (NCI-H460 lung) was > 100 µM and the TGI (T-47D breast) was > 100 µM. The TGI (MCF7 breast) was > 100 µM, the TGI (UACC-62 melanoma) was > 100 µM and the TGI (786-0 renal) was > 93 µM. For the same compound, the TGI (KM12 colon) was > 100 µM, the TGI (CAKI-1 renal) was > 100 µM and the TGI (PC-3 prostate) was > 100 µM. For the same compound, the TGI (NCI-H226 lung) was > 100 µM, the TGI (HCT-15 colon) was > 100 µM and the TGI (SNB-19 CNS) was > 76.4 µM. The TGI (NCI-H23 lung) was > 100 µM, the TGI (DU-145 prostate) was > 100 µM and the TGI (SN12C renal) was > 100 µM. For the same compound, the TGI (SF-268 CNS) was > 100 µM, the TGI (SR leukemia) was > 100 µM and the TGI (SK-MEL-28 melanoma) was > 100 µM. The TGI (SW-620 colon) was > 100 µM, the TGI (HCC-2998 colon) was > 100 µM and the TGI (HS 578T breast) was > 88.1 µM. For the same compound, the TGI (SF-539 CNS) was > 71.4 µM, the TGI (RXF 393 renal) was 51.5 µM and the TGI (OVCAR-3 ovarian) was > 100 µM. The TGI (MDA-MB-231 breast) was > 100 µM, the TGI (MDA-MB-435) was > 100 µM and the TGI (SNB-75 CNS) was > 82.4 µM. For the same compound, the TGI (HL-60(TB) leukemia) was > 100 µM and the TGI (A498 renal) was 66.8 µM.
In the case of `COc1ccc(C2Oc3ccc(Cl)cc3C=C2[N+](=O)[O-])cc1OC` (configuration not stated), the TGI (M14 melanoma) is reported as 1.63 µM, the TGI (HCT-116 colon) is reported as 1.62 µM and the TGI (RPMI-8226 leukemia) is reported as 0.608 µM. It also gave a TGI (SK-MEL-5 melanoma) of 2.96 µM, a TGI (U251 CNS) of 2.35 µM and a TGI (MDA-N) of 1.11 µM. For the same compound, the TGI (HOP-62 NSCLC) was 3.12 µM, the TGI (OVCAR-8 ovarian) was 2.64 µM and the TGI (NCI-H522 lung) was 2.66 µM. For the same compound, the TGI (SF-295 CNS) was 3.46 µM, the TGI (IGROV1 ovarian) was 3.35 µM and the TGI (SK-OV-3 ovarian) was 6.11 µM. It also gave a TGI (OVCAR-4 ovarian) of 3.46 µM, a TGI (MALME-3M melanoma) of 4.28 µM and a TGI (UO-31 renal) of 3.47 µM. For the same compound, the TGI (MOLT-4 leukemia) was 0.733 µM, the TGI (TK-10 renal) was 2.87 µM and the TGI (LOX IMVI melanoma) was 1.43 µM. The TGI (OVCAR-5 ovarian) was 3.14 µM, the TGI (ACHN renal) was 2.77 µM and the TGI (A549 NSCLC) was 5.04 µM. It also gave a TGI (SK-MEL-2 melanoma) of 3.05 µM, a TGI (CCRF-CEM leukemia) of 0.372 µM and a TGI (COLO 205 colon) of 4.41 µM. It also gave a TGI (UACC-257 melanoma) of 4.07 µM, a TGI (EKVX NSCLC) of 7.13 µM and a TGI (K-562 leukemia) of 1.08 µM. The TGI (HOP-92 NSCLC) was 4.33 µM, the TGI (BT-549 breast) was 2.62 µM and the TGI (NCI/ADR-RES ovarian) was 2.12 µM. The TGI (NCI-H460 lung) was 5.95 µM, the TGI (T-47D breast) was 4.35 µM and the TGI (MCF7 breast) was 3.39 µM. It also gave a TGI (UACC-62 melanoma) of 3.65 µM, a TGI (786-0 renal) of 0.871 µM and a TGI (KM12 colon) of 2.86 µM. For the same compound, the TGI (CAKI-1 renal) was 3.93 µM, the TGI (PC-3 prostate) was 2.95 µM and the TGI (NCI-H226 lung) was 4.24 µM. For the same compound, the TGI (HCT-15 colon) was 3.09 µM, the TGI (SNB-19 CNS) was 5.02 µM and the TGI (NCI-H23 lung) was 4.35 µM. For the same compound, the TGI (DU-145 prostate) was 2.97 µM, the TGI (SN12C renal) was 2.82 µM and the TGI (SF-268 CNS) was 5 µM. The TGI (SR leukemia) was 0.307 µM, the TGI (SK-MEL-28 melanoma) was 3.58 µM and the TGI (SW-620 colon) was 0.497 µM. For the same compound, the TGI (HCC-2998 colon) was 3.33 µM, the TGI (HS 578T breast) was 15.5 µM and the TGI (SF-539 CNS) was 3.13 µM. It also gave a TGI (RXF 393 renal) of 3.04 µM, a TGI (OVCAR-3 ovarian) of 2.06 µM and a TGI (MDA-MB-231 breast) of 2.59 µM. It also gave a TGI (MDA-MB-435) of 1.21 µM, a TGI (SNB-75 CNS) of 2.45 µM and a TGI (HL-60(TB) leukemia) of 0.47 µM. For the same compound, the TGI (A498 renal) was 7.36 µM.
